“Also recorded” adds a separate entry of the source.
Assays:
C. elegans = experiment: Conjugate uptake in C. elegans (dye and praziquantel conjugates, fluorescence microscopy); type: in vivo, Caenorhabditis elegans; settings: for uptake: location of fluorescence in C. elegans: 50 μM
Experimental: Nematode Growth Media (NGM) plates containing C. elegans were washed with 1.0-1.5 mL of standard M9 buffer and the washes were collected in an Eppendorf tube. The liquid containing the C. elegans was then spun for 1 min at room temperature at 10,000 rpm. The supernatant was removed, and fresh M9 buffer was added (500 μL) to generate a new stock solution of M9 buffer containing the C. elegans.
A C. elegans suspension (100 μL) was added a defined amount of M9 buffer (determined by the final desired concentration of compound to be tested: 399 μL in the case of the BODIPY tagged derivatives) contained within a separate Eppendorf tube. To this was then added a 25 mM solution of the compound in DMSO (1 μL). The resulting suspension was mixed using a vortex instrument.
The resulting mixture was incubated at room temperature for 2 to 4 h. in the dark (using aluminium foil to screen the tube, which was also stored in a cabinet).
Other samples were incubated overnight. Here, OP50 bacteria (3 μL) were added to the worms for feeding purposes, and the worms were kept in the dark at 20° C.
After the incubation, the tube contents were mixed gently by hand (typically by simple rotation of the tube), so as to achieve a homogenous suspension. A sample of the suspension (250 μL) was taken and mixed with M9 buffer (500 μL). The resulting suspension was placed in a centrifuge and spun at room temperature at 10,000 rpm for 1 min. The supernatant was removed, and the washing process was repeated twice more, each time using further quantities of fresh M9 buffer (500 μL each time). After the final washing sufficient supernatant was removed so as to leave a final sample volume of approximate 30 μL.
A 1.5% agarose solution in water was pre-warmed for 60 to 90 s. in a standard household style microwave (set to Power 4). Two drops of this solution was removed and placed on a glass slide. The glass slide was covered with a second glass slide. After 1 min., the slides were slid carefully apart, with the agarose remaining on one of the slides. Onto this slide was placed an aliquot of the final C. elegans solution (15 to 20 μL). To this was added a 20 mM sodium azide solution (5 μL) to inhibit nematode mobility. Vaseline was then placed around the agarose area before replacing the second slide. The slides were not pressed together.
The nematodes were then analysed using a Zeiss Axiskop 2 Plus microscope with a Hamamatsu Orca-ER (CA 742-95) camera. The images were resolved using OpenLab on a Mac operating system.
Compounds 1-11 were evaluated after 3 h and overnight incubation at a 50 μM concentration using the general uptake protocol described for C. elegans.
In order to compare the ability of a conjugate to improve the uptake of the drug praziquantel, two praziquantel derivatives were generated. Praziquantel was tagged with a BODIPY fluorescent tag (compound 12) and incorporated into a conjugate of the invention (compound 13). Compounds 12 and 13 were evaluated at a concentration of 50 μM using the C. elegans uptake protocol described above for compounds 1-11. Microscopic readings were taken after 3, 24 and 72 h.

Staphylococcus aureus = experiment: Bacteria testing: uptake in Staphylococcus aureus; settings: FIG. 2(g); 25 μM, 45 minutes, 37° C.
Experimental: (§1) Bacteria cultured by inoculating LB media (Thermo-Fisher) with the desired bacteria and incubating overnight at 37° C. under an atmosphere of air. The OD600 was then measured and the concentration of bacteria calculated from this. The cultures were then diluted appropriately to give a concentration of 2×10^5 cells per mL. 1 mL of this culture was placed in a 5 mL centrifuge tube then centrifuged at 13,000 rpm for 5 minutes. The supernatant was removed and replaced with 1 mL of 25 μM solution of compound in media. The cultures were incubated for 45 minutes at 37° C. The cultures were centrifuged as before, the supernatant removed and the pellet resuspended in 1 mL of PBS. The cells were washed in this manner twice more. After the final washing the pellet was resuspended in 35 μL of water and spotted onto a slide. The slide was then protected with a coverslide before the images were analysed using an Olympus UV microscope system with a Leica imaging analysis software with a FITC fluorescent filter.

L. passim strain PRA-403 = experiment: Lotmaria passim parasite uptake test; type: cell-based; settings: 1 μM and 100 μM, room temperature, 45 min
Experimental: 100 mM stock solutions of BODIPY derivatives were prepared with dimethylsulfoxide (DMSO). L passim strain PRA-403 (ATCC) was cultured in modified medium for C. bombi (Tognazzo et al.). The parasite culture was centrifuged, supernatant was removed and 500 μL of L passim medium with compound (final concentration 500, 100, 10 or 1 μM for BODIPY derivatives) or DMSO (0.1%) control was added. Incubated for 45 min at room temperature.
Uptake tests were performed at 1 μM and 100 μM final concentration of CJ-BODIPY derivatives. After incubation at room temperature for 45 min, fluorescence intensities were evaluated using a microplate reader.

Theileria parva = experiment: Uptake in erythrocyte infected with Theileria parva (FIG. 2(b)); type: cell-based
T. annulata = experiment: Theileria annulata testing: uptake; type: cell-based; settings: 1 hour, 37° C.
Experimental: T. annulata were cultured using RPMI 1640 with 10% Albumax II (Thermo-Fisher) serum. A standard hemocytometer was used to calculate the concentration of cells in the parent culture. […] For each compound and concentration to be tested, 2 mL of the culture were centrifuged at 1,000 rpm for 5 minutes. The medium was removed before the cells were resuspended in 950 μL of complete medium containing the compound to be tested at the desired concentration. This was prepared from a 100 mM stock solution of compound in DMSO. Once the cells were resuspended they were transferred to a 5 well plate (1 mL capacity per well). They were then incubated for 1 hour at 37° C. in an atmosphere of 5% CO2 in air. After the incubations were complete the contents of each well were transferred to a 10 mL centrifuge tube. Cold RPMI 1640 (Thermofisher) or HBSS added to obtain a volume of 5 mL. The suspension was then centrifuged at 1,000 rpm and at 4° C. for 5 minutes. […] After the final washing the pellet of cells was resuspended in a minimum amount of RPMI 1640 and then spotted onto a glass slide. The slide was then covered with a cover slip and analysed using Olympus BX60 UV microscope system with a Spot RT3 camera and Spot Image software with a FITC fluorescent filter.

P. falciparum = experiment: Plasmodium falciparum testing: uptake by infected and non-infected red blood cells; type: cell-based; settings: 25 μM, 45 minutes, 37° C., synchronised stage and mix-stage cultures
Experimental: Compounds 1, 5, 9, 10 and 11 were tested for uptake in both synchronised stage and mix-stage cultures at 25 μM concentrations.

T. brucei = experiment: Trypanosoma brucei testing: uptake; type: cell-based; settings: 10-25 μM, 45 minutes, 37° C.
Enterococcus faecalis = experiment: Bacteria testing: uptake in Enterococcus faecalis; settings: FIG. 2(f); 25 μM, 45 minutes, 37° C.
Experimental: as §1

B. bovis Texas strain = experiment: Short-term uptake test in B. bovis infected RBCs (confocal microscopy)
Experimental: The parasite culture was centrifuged and washed once with GIT medium. RBC's were pellet down, and 20 μl infected RBC mixture (10 μl packed infected RBC+10 μl GIT) was prepared. Then, 180 μl GIT medium with compound the compound to be evaluated (final concentration 25 μM for BODIPY derivatives and 100 μM for phiLOV derivatives) or DMSO (0.1%)/PBS control was added. The samples were incubated for 45 min at 37° C. (Samples were stained 1 μg/mL diluted Hoechst 33342 in GIT medium). After incubation, the samples were centrifuged and the pellet was washed with GIT medium (3×). A final solution of 50% haematocrit infected RBC mixture was transferred to slides to be observed by confocal laser microscopy (Nikon A1).
Uptake experiments were performed by incubating the parasite (˜5% Parasitized Erythrocytes (PPE)) with each derivative at 25 μM and 37° C. for 45 min. After incubation, the fluorescence intensities were calculated from confocal microscope images.
The phiLOV double mutant (R475G, K476C) was used to generate derivatives P11, P1, P8, and P3 which were tested for uptake in B. bovis Texas strain using phiLOV as a control. The derivatives and the control were incubated at 100 μM and 37° C. for 45 min. After incubation, the samples were analysed under confocal microscopy using Hoeschst 33342 (Thermofisher) as co-stain.

Escherichia coli = experiment: Bacteria testing: uptake in Escherichia coli; settings: FIG. 2(e); 25 μM, 45 minutes, 37° C.
Experimental: as §1

[1] = system: Gram-negative and Gram-positive bacteria; experiment: Bacteria testing: uptake in bacterial cultures; type: cell-based; settings: 25 μM, 45 minutes, 37° C.
[2] = system: human embryonic kidney cells (HEK293); experiment: Cytotoxicity against HEK293 cells (CellTitre-Glo); type: cell-based; settings: 100 μM, HEK293, 24 hours
Experimental: A sample compound was incubated at 100 μM with human embryonic kidney cells (HEK293) in Greiner 384 cell star plates for 24 hours before adding CellTitre-Glo® (Promega), an indicator of cell viability giving a luminescent output. In this assay, compounds showing greater than 40% cytotoxicity over two test runs at 100 μM are deemed to have shown cytotoxicity.

SMILES | uptake: location of fluorescence in C. elegans (C. elegans; 3 h incubation) | uptake: location of fluorescence in C. elegans (C. elegans; 20 h / overnight incubation) | distribution in C. elegans (C. elegans; FIG. 2(h), fluorescence microscopy) | uptake by Staphylococcus aureus (Staphylococcus aureus) | uptake in L. passim (fluorescence intensity, microplate reader) (L. passim strain PRA-403) | accumulation in Theileria parva infected erythrocyte (Theileria parva) | uptake in T. annulata (T. annulata) | uptake by infected and non-infected red blood cells (P. falciparum) | uptake in T. brucei (T. brucei) | uptake by Enterococcus faecalis (Enterococcus faecalis) | uptake compared to compound 1 (% less) (B. bovis Texas strain; 25 μM, 37° C., 45 min, ~5% PPE) [%] | uptake by non-infected erythrocytes (B. bovis culture) (B. bovis Texas strain; FIG. 2(a)) | uptake by Escherichia coli (Escherichia coli) | uptake in bacterial cultures [1] | outcome in the cytotoxicity screen [2] | cytotoxicity ([2]; CellTitre-Glo, greater than 40% deemed cytotoxic) [%]
CC1=CC(C)=[N+]2C1=Cc1ccc(CCCn3cc(CCNC(=O)/C=C/NC(=O)[C@H](O)C(C)(C)CO)nn3)n1[B-]2(F)F [Compound 5, (R,E)-N-((((3-[4,4-Difluoro-5,7-dimethyl-4-bora-3a,4a-diaza-s-indacene-3-yl]propyl)-1H-1,2,3-triazol-4-yl)ethylamino)-3-oxoprop-1-enyl)-2,4-dihydroxy-3,3-dimethylbutanamide] | small amounts of compound 5 were present in the gut cells, and the gut lumen of the larval stages, as well as in the pharynx, gut lumen and gut cells of adult nematodes; also recorded: not detected in the embryos | fluorescence remained in the pharynx, gut cells and gut lumen of both the larval and adult stages; also recorded: Fluorescence was also detected in the early stage of egg development, but not in the embryos | localised with the digestive track of C. elegans | uptake of the conjugate by the organism | relatively low uptake | seen to accumulate within the parasite | taken up by T. annulata; also recorded: selectively accumulated within the intracellular parasite | selectively taken up by infected red blood cells; also recorded: accumulated within the parasite itself; also recorded: Non-infected erythrocytes do not take up the conjugate | taken up by T. brucei and forms small vesicles all over the trypanosome body, whilst not accumulating neither in the lysosome nor in the nucleus, but rather in a vesicle between the flagellar pocket and the lysosome; also recorded: taken up by T. brucei and forms small vesicles all over the trypanosome body | uptake of the conjugate by the organism | 30 | Non-infected erythrocytes do not take up the conjugate | uptake of the conjugate by the organism | Uptake was seen both in the case of Gram-negative and Gram-positive bacteria |  | 
CC1(C)OCC(C)(C)C(C(=O)N/C=C/C(=O)NCCCCCO[Si](c2ccccc2)(c2ccccc2)C(C)(C)C)O1 (stereo not shown) |  |  |  |  |  |  |  |  |  |  |  |  |  |  | inactive in the screen | 3.7±0.6

— patent US20220054658A1, “CONJUGATES” (Transfection Holdings Limited, priority 2018, published 2022)
